This is an account of results in PubChem BioAssay (NCI).

The structures appear in SMILES notation.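 Grown in 96-well plates, cells were treated for 48 hours with each compound at five concentrations. Insufficient inhibition: endpoint recorded as highest concentration tested. GI50 = concentration required for 50% inhibition of growth. TGI is the concentration that stops growth completely.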

Common to all, as to test: DTP human tumour cell line panel, 48 h
In assay [1] the test system is SF-295 CNS.
Assay [2] concerns CCRF-CEM leukemia.
In assay [3] the test system is SW-620 colon.
For assay [4], the system named is CAKI-1 renal.
Assay [5] relates to OVCAR-4 ovarian.
Assay [6] deals with K-562 leukemia.
Assay [7] concerns COLO 205 colon.
The test system of assay [8] is U251 CNS.
Assay [9] concerns NCI/ADR-RES ovarian.
Assay [10] deals with MDA-MB-231 breast.

In general, TGI refers to the concentration at which net growth stops. Read a high TGI as less potent growth arrest. As a reminder, the GI50 is the concentration at which growth is held to half of that of the control.

`O=C(O)C1CC2C=CCC(C2)C1` (stereo not drawn): the concentration for total growth inhibition (TGI) in [1], in assay [2], in [3], in assay [4], in [5] and in [6] was over 100 µM in each case. Moreover, the total growth inhibition concentration (TGI) in assay [7] and in [8] was over 100 µM each time.
For the compound `CCNC(=O)COc1ccc(Cl)c(C)c1`, the concentration for total growth inhibition (TGI) in assay [1], in assay [2], in [3], in assay [4], in assay [5] and in assay [6] was over 100 µM throughout. Besides, the TGI in assay [7] and in assay [8] was over 100 µM throughout.
Take `COc1ccc(-c2cn3ccnc3c(-c3ccc(Cl)cc3)n2)cc1`: the GI50 in [1] was 23.1 µM; in assay [9] it was 3.77 µM; in assay [3] it was 4.51 µM; in [4] it was 2.9 µM; in [5] it was 5.61 µM; in [6], 4.01 µM. Besides, the GI50 in assay [7] was 5.49 µM; in [10], 4.13 µM. Also, the total growth inhibition concentration (TGI) in [1] was 85.3 µM; in assay [9], 28.2 µM; in [3] it was over 100 µM; in [4] it was 11 µM; in [5] it was over 100 µM; in [6] it was over 100 µM. In addition, the TGI in assay [7] was over 100 µM; in assay [10] it was 55.9 µM.
Consider `COc1cccc(C=NC23CC4CC(CC(C4)C2)C3)c1`, for which the TGI in assay [1], in [2], in assay [3], in [4], in [5] and in assay [6] was over 100 µM in each case. Further, the total growth inhibition concentration (TGI) in assay [7] and in assay [8] was over 100 µM in each case.
For `Nc1ccccc1SC(/C=C/NNC1=NC(c2ccccc2)C(c2ccccc2)=NN1)c1ccccc1` (stereo not drawn), the TGI in [1] came out at 24.5 µM; in assay [2] it was 7.94 µM; in [3], 29.1 µM; in assay [4] it was 26.4 µM; in assay [5] it was 28.7 µM; in assay [6], 35.7 µM. Further, the values for the concentration for total growth inhibition (TGI) in assay [7] and in [8] were 29 µM and 28.9 µM, respectively.
As for `CCOC(=O)NN1C(=O)C(=P(c2ccccc2)(c2ccccc2)c2ccccc2)C(C(=O)OC)=C1C`, the TGI in assay [1], in assay [2], in assay [3], in assay [4], in assay [5] and in assay [6] was over 100 µM in each case. For the same compound, the TGI in [7] and in assay [8] was over 100 µM throughout.
As to `COC(=O)C1=C(O)c2cc(OC)c(OC)c(OC)c2C(c2ccc3c(c2)OCO3)[C@@H]1C(=O)OC` (stereo partly drawn), the TGI was 13.4 µM in assay [1]; over 100 µM in [2]; over 100 µM in assay [3]; over 100 µM in assay [4]; over 100 µM in assay [5]; over 100 µM in assay [6]. In addition, the TGI in assay [7] was 6.37 µM; in [8] it was over 100 µM.
`COC(OC)c1cccnc1C`: the TGI in assay [1], in [2], in assay [3], in [4], in [5] and in [6] was over 100 µM in each case. The TGI in [7] and in assay [8] was over 100 µM each time.
For `CCOC(=N)CC(=O)Nc1ccccc1CC`, the total growth inhibition concentration (TGI) in assay [1], in assay [2], in assay [3], in [4], in assay [5] and in [6] was over 100 µM in each case. Moreover, the TGI in assay [7] and in assay [8] was over 100 µM each time.
Consider `CC(NC1CCCC[C@@H]1O)c1ccccc1` (stereo partly drawn), for which the concentration for total growth inhibition (TGI) in assay [1], in [2], in [3], in assay [4], in [5] and in assay [6] was over 100 µM throughout. For the same compound, the TGI in assay [7] and in assay [8] was over 100 µM in each case.
As to `O=S1(=O)CCC2=CC(C(F)(F)F)=CC(C(F)(F)F)=CN21`, the total growth inhibition concentration (TGI) in assay [1] was determined as 4.8 µM; in assay [2] it was 2.48 µM; in [3], 0.779 µM; in assay [4], 2.03 µM; in assay [5], 4.24 µM; in assay [6] it was 6.61 µM. The figures for the TGI in assay [7] and in assay [8] were 1.34 µM and 3.43 µM, respectively.
As to `O=C(C#Cc1ccccc1)NC/C=C/c1ccccc1`, the TGI in [1], in assay [2], in assay [3], in assay [4], in assay [5] and in [6] was over 100 µM each time. In addition, the TGI in assay [7] and in [8] was over 100 µM in each case.
For the compound `O=C1C(=O)N(c2cc(Cl)ccc2Cl)C(=O)C(=O)C1c1nc2ccccc2s1`, the TGI in assay [1], in assay [2], in assay [3], in [4], in [5] and in assay [6] was over 100 µM in each case. Moreover, the total growth inhibition concentration (TGI) in assay [7] and in [8] was over 100 µM in each case.
In the case of `O=C1N=C2N=C(c3ccc(Cl)cc3)N(c3ccc(Cl)cc3)N2Sc2ccccc21`, the TGI in [1], in assay [2], in assay [3], in assay [4], in assay [5] and in assay [6] was over 100 µM each time. The TGI in assay [7] was over 100 µM; in assay [8], 87.2 µM.
In the case of `C[C@]12CC[C@H](OC(=O)Nc3ccccc3)CC1=CC[C@@H]1C2CC[C@]2(C)/C(=N/OC(=O)Nc3ccccc3)CCC12` (stereo partly drawn), the total growth inhibition concentration (TGI) was over 100 µM in [1]; over 100 µM in assay [2]; over 100 µM in [3]; 4.96 µM in assay [4]; over 100 µM in assay [5]; over 100 µM in [6]. For the same compound, the TGI in assay [7] and in assay [8] was over 100 µM throughout.
Turning to `C/C(=C\c1ccccc1)C(=O)c1c(C)cc(C)cc1C`, the total growth inhibition concentration (TGI) in [1], in [2], in assay [3], in assay [4], in assay [5] and in assay [6] was over 100 µM each time. The total growth inhibition concentration (TGI) in [7] and in assay [8] was over 100 µM each time.
With `O=C(CC1(O)CCCCC1)OC1CCCC1`, the concentration for total growth inhibition (TGI) in assay [1], in [9], in [4], in [5], in assay [7] and in [8] was over 100 µM each time. The compound further had a TGI in assay [10] of over 100 µM.
For the compound `Cn1cnnc1Sc1c([N+](=O)[O-])nc(-c2ccc([N+](=O)[O-])cc2)n1C`, the TGI in [1] was over 100 µM; in assay [2], 33.7 µM; in [3], 31.3 µM; in assay [4], over 100 µM; in assay [5], 29.5 µM; in assay [6], 53.2 µM. Also, the concentration for total growth inhibition (TGI) in assay [7] came to 28.3 µM; in [8] it was 30.2 µM.
As for `COc1ccc(/C=C(\C#N)c2cc(OC)c(OC)c(OC)c2)cc1`, the GI50 in assay [1] is under 0.0156 µM; in [2], 0.0361 µM; in assay [3] it was 0.0282 µM; in [4], 0.0209 µM; in assay [5], 0.0297 µM; in assay [6], under 0.01 µM. In addition, the results for the concentration for 50% growth inhibition (GI50) in [7], in assay [8] and in assay [10] were 0.011 µM, 0.0359 µM and 0.0483 µM, respectively. For the same compound, the concentration for total growth inhibition (TGI) in assay [1] is 50.7 µM; in assay [2], over 43.5 µM; in [3], over 100 µM; in [4] it was over 100 µM; in [5], over 100 µM; in assay [6] it was over 100 µM. Moreover, the TGI in assay [7] was 0.0251 µM; in assay [8], over 100 µM; in assay [10], over 100 µM.
For `O=C(NCCCN1CCN(CCCNC(=O)Nc2cc(Cl)ccc2Cl)CC1)Nc1cc(Cl)ccc1Cl`, the TGI in [1], in [2], in [3], in assay [4], in [5] and in assay [6] was over 100 µM throughout. In addition, the TGI in [7] and in [8] was over 100 µM throughout.
As to `COc1ccc(OCC(=O)O)c2c1CCC(C)C2=O` (stereo not drawn), the concentration for total growth inhibition (TGI) in assay [1], in assay [2], in [3], in assay [4], in [5] and in assay [6] was over 100 µM each time. In addition, the TGI in [7] and in assay [8] was over 100 µM each time.
Take `Nc1ccc(C(=O)N/C(=C\c2ccc3c(c2)OCO3)c2nc3ccccc3s2)cc1`: the total growth inhibition concentration (TGI) amounted to 30.3 µM in [1]; 7.28 µM in assay [2]; 23.6 µM in [3]; 29.7 µM in [4]; 25.1 µM in assay [5]; 38 µM in assay [6]. In addition, the TGI in assay [7] turned out to be 34.9 µM; in [8] it was 26.4 µM.
